Measured values taken from patent publication US20240360133A1, “FUSED TRICYCLIC COMPOUND, PREPARATION METHOD THEREFOR AND APPLICATION THEREOF IN MEDICINE” (Jiangsu Hengrui Pharmaceuticals Co., Ltd., priority 2020, published 2024).

These compounds were tested against T1, human TLR8 (Homo sapiens, UniProt Q9NR97) (assay: Inhibitory effect on human TLR8 pathway (HEK-Blue hTLR8 SEAP reporter)). Settings: HEK-Blue hTLR8 cells, 6 μM resiquimod, 20 h, SEAP OD620.
T1 construct: host or cells: HEK-Blue hTLR8 (HEK293)
T1 sequence (Q9NR97 27-1041): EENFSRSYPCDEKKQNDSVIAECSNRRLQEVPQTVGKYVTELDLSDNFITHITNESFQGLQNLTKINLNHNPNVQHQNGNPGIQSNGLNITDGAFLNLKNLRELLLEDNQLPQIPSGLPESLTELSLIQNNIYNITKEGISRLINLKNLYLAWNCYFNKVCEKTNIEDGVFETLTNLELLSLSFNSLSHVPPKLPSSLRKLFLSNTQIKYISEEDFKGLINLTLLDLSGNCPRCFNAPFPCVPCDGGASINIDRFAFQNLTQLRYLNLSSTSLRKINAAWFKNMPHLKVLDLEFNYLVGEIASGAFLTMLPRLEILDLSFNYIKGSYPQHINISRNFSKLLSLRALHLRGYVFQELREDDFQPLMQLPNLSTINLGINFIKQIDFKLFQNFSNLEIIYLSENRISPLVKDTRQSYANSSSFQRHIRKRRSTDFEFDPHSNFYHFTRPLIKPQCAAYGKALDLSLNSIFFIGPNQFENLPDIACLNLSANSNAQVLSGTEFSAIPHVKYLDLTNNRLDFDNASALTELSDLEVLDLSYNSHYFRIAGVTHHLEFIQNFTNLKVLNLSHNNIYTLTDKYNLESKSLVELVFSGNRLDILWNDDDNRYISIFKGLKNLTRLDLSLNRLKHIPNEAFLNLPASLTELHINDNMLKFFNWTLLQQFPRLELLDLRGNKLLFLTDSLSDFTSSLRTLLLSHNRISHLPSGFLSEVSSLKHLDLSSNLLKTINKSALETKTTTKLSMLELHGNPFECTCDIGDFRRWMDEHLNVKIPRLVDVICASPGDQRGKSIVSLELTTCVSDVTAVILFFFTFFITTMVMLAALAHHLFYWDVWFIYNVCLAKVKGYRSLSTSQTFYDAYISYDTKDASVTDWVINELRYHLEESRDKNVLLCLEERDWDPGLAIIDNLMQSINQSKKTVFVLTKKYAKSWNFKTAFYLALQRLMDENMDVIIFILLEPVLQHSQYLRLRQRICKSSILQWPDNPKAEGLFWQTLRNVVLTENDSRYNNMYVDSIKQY
Format: cell-based
Procedure: • 1. HEK-Blue™ hTLR8 cell (Invivogen) • 2. Resiquimod (R848, Invivogen) • 3. Alkaline phosphatase detection medium (Quanti-Blue Detection, Invivogen) • 4. Blasticidin (Invivogen) • 5. Zeocin (Invivogen) • 6. Normocin (Invivogen) • 7. DMEM/HIGH Glucose (GE Healthcare) • 8. Fetal bovine serum (FBS, Gibco) • 9. Phosphate-buffered saline (Shanghai BasalMedia Technologies Co., Ltd.) • 10. Sterile purified water (made in-house by Shanghai Hengrui) • 11. 15 mL centrifuge tube (Corning) • 12. 96-well formulating plate (Corning) • 13. 96-well flat-bottom cell culture plate (Corning) • 14. Constant-temperature cell incubator (Thermo scientific) • 15. Constant-temperature incubator (Shanghai Yiheng Scientific Instruments Co., Ltd.) • 16. PHERAstar FS microplate reader (BMG Labtech)
HEK-Blue™ hTLR8 cells were purchased from Invivogen. These cells are HEK293 cells transfected with the human Toll-like receptor 8 (TLR8) gene and the secreted alkaline phosphatase reporter gene (SEAP). The alkaline phosphatase reporter gene (SEAP) is under the regulation of the IFN—P minimal promoter comprising 5 NF-kB and AP-1 binding sites. Upon activation of TLR8 with an agonist, SEAP secretion is induced via downstream NF-kB and AP-1. After addition of an antagonist compound, the pathway described above is inhibited, and SEAP secretion is reduced. The activity of the compounds for the TLR8 pathway was evaluated by measuring OD620 through the SEAP substrate.
20 mM test compounds dissolved in 100% DMSO were serially diluted with 100% DMSO to 2000, 400, 80, 16, 3.2, 0.64, 0.128, 0.0256 μM, with blank wells containing 100% DMSO. The compounds and 100% DMSO were then 20-fold diluted in DMEM/HIGH glucose media containing 10% inactivated FBS (complete media, the same applies below). Resiquimod was diluted to 60 μM with sterile water. The 60 μM resiquimod dilution in sterile water was added to a 96-well cell culture plate at 20 μL/well. The above compounds diluted in complete media and 100% DMSO were then added at 20 μL/well to wells containing resiquimod, 20 μL of sterile water and 20 μL of 100% DMSO diluted in the complete medium were added to negative control wells.
HEK-Blue™ hTLR8 cells were cultured in a DMEM/HIGH glucose medium containing 10% inactivated FBS, 100 μg/mL Normocin, 10 μg/mL blasticidin, and 100 μg/mL Zeocin. Cells that were in a good state of growth and had grown to 70%-8% were collected. The growth medium was discarded, 5-10 mL of PBS pre-heated at 37° C. was added to wash the cells once, and 2-5 mL of pre-heated PBS was added. The cells were cultured at 37° C. for 1-2 min, dispersed by pipetting, transferred to a 15 mL centrifuge tube, and counted, and the cell density was adjusted to 4.8×10^5/mL with the complete medium. After density adjustment, 160 μL of the resulting cell suspension was added to the above 96-well cell culture plate to a final number of cells per well of 76,500/well. The final concentration of resiquimod was 6 μM, and the final concentrations of the test compounds were 10,000, 2000, 400, 80, 16, 3.2, 0.64, and 0.128 nM. The cells were cultured in a 37° C., 5% CO2 incubator for 20 h. Then 20 μL of the supernatant was added to 180 μL of the prepared alkaline phosphatase detection medium and incubated in the dark in a constant-temperature incubator at 37° C. for 120 min. The OD620 absorbance readings were taken on a microplate reader. The inhibition rate was calculated using the following formula: […]
Inhibition curves were plotted using Graphpad Prism software according to the concentrations of the compounds and the corresponding inhibition rates, and the concentrations of the compounds at which the inhibition rate reached 50%, i.e., IC50 values, were calculated and are shown in Table 2.

| IC50 [nM] | SMILES |
| --- | --- |
| 2.5 | Cc1cc(-c2[nH]c3cc4c(nc3c2C(C)C)CN(Cc2ccc(N3CCNCC3)cn2)CC4)cc(C)n1 [Example 5, 2-(2,6-Dimethylpyridin-4-yl)-3-isopropyl-6-((5-(piperazin-1-yl)pyridin-2-yl)methyl)-5,6,7,8-tetrahydro-1H-pyrrolo[3,2-b][1,7]naphthyridine] |
| 0.8 | Cc1cc(-c2[nH]c3cc4c(nc3c2C(C)C)CNCC4)cc(C)n1 [Example 1, 2-(2,6-Dimethylpyridin-4-yl)-3-isopropyl-5,6,7,8-tetrahydro-1H-pyrrolo[3,2-b][1,7]naphthyridine] |
| 1.8 | Cc1cc(-c2[nH]c3cc4c(nc3c2C(C)C)CN(CCc2ccc(N3CCNCC3)nc2)CC4)cc(C)n1 [Example 4, 2-(2,6-Dimethylpyridin-4-yl)-3-isopropyl-6-(2-(6-(piperazin-4-yl)pyridin-3-yl)ethyl)-5,6,7,8-tetrahydro-1H-pyrrolo[3,2-b][1,7]naphthyridine] |
| 18.8 | Cc1cc(-c2[nH]c3cc4c(nc3c2C(C)C)CN(CC(N)=O)CC4)cc(C)n1 [Example 8, 2-(2-(2,6-Dimethylpyridin-4-yl)-3-isopropyl-1,5,7,8-tetrahydro-6H-pyrrolo[3,2-b][1,7]naphthyridin-6-yl)acetamide] |
| 2.2 | Cc1cc(-c2[nH]c3cc4c(nc3c2C(C)C)CN(CC23CCC(N)(CC2)CC3)CC4)cc(C)n1 [Example 7, 4-((2-(2,6-Dimethylpyridin-4-yl)-3-isopropyl-1,5,7,8-tetrahydro-6H-pyrrolo[3,2-b][1,7]naphthyridin-6-yl)methyl)bicyclo[2.2.2]octyl-1-amine] |
| 30.4 | Cc1cc(-c2[nH]c3cc4c(nc3c2C(C)C)CN(C(C)C)CC4)cc(C)n1 [Example 2, 2-(2,6-Dimethylpyridin-4-yl)-3,6-diisopropyl-5,6,7,8-tetrahydro-1H-pyrrolo[3,2-b][1,7]naphthyridine] |
| 0.6 | Cc1c(-c2[nH]c3cc4c(nc3c2C(C)C)CNCC4)cn2ncnc2c1C [Example 9, 2-(7,8-Dimethyl-[1,2,4]triazolo[1,5-a]pyridin-6-yl)-3-isopropyl-5,6,7,8-tetrahydro-1H-pyrrolo[3,2-b][1,7]naphthyridine] |
| 8.2 | Cc1c(-c2[nH]c3cc4c(nc3c2C(C)C)CN(CC(N)=O)CC4)cn2ncnc2c1C [Example 10, 2-(2-(7,8-Dimethyl-[1,2,4]triazolo[1,5-a]pyridin-6-yl)-3-isopropyl-1,5,7,8-tetrahydro-6H-pyrrolo[3,2-b][1,7]naphthyridin-6-yl)acetamide] |
